# Key:
# [1] = biological target: Tyrosine-protein kinase FRK (Homo sapiens) (UniProt P42685); settings: Compound concentration 1000.0 nM
# [2] = biological target: Ribosomal protein S6 kinase alpha-4 (Homo sapiens) (UniProt O75676); settings: Compound concentration 1000.0 nM
# [3] = biological target: D(2) dopamine receptor (Homo sapiens) (UniProt P14416); settings: Compound concentration 10.0 uM
# [4] = biological target: Macrophage-stimulating protein receptor (Homo sapiens) (UniProt Q04912); settings: Compound concentration 1000.0 nM
# [5] = biological target: Tyrosine-protein kinase Blk (Homo sapiens) (UniProt P51451); settings: Compound concentration 1000.0 nM
# [6] = biological target: Ribosomal protein S6 kinase alpha-5 (Homo sapiens) (UniProt O75582); settings: Compound concentration 1000.0 nM
# [7] = biological target: 5-hydroxytryptamine receptor 2B (Homo sapiens, UniProt P41595); settings: Compound concentration 10.0 uM
# [8] = biological target: Leucine-rich repeat serine/threonine-protein kinase 2 (Homo sapiens) (UniProt Q5S007); settings: Compound concentration 1000.0 nM
# [9] = biological target: Glucocorticoid receptor (Homo sapiens) (UniProt P04150); assay: GR (h) CEREP ligand profiling; settings: filed as agonist, Compound concentration 10.0 uM
# [10] = biological target: Serine/threonine-protein kinase MRCK alpha (Homo sapiens) (UniProt Q5VT25); settings: Compound concentration 1000.0 nM
# [11] = biological target: Proto-oncogene tyrosine-protein kinase receptor Ret (Homo sapiens) (UniProt P07949); settings: Compound concentration 1000.0 nM
# [12] = biological target: Serine/threonine-protein kinase pim-3 (Homo sapiens) (UniProt Q86V86); settings: Compound concentration 1000.0 nM
# [13] = biological target: 5-hydroxytryptamine receptor 1B (Homo sapiens) (UniProt P28222); settings: Compound concentration 10.0 uM
# [14] = biological target: Calcium/calmodulin-dependent protein kinase type II subunit beta (Homo sapiens) (UniProt Q13554); settings: Compound concentration 1000.0 nM
# [15] = biological target: Muscarinic acetylcholine receptor M3 (Homo sapiens) (UniProt P20309); settings: Compound concentration 10.0 uM
# [16] = biological target: Cyclin-dependent kinase 13 (Homo sapiens) (UniProt Q14004); settings: Compound concentration 1000.0 nM
# [17] = biological target: Calcium/calmodulin-dependent protein kinase kinase 2 (Homo sapiens) (UniProt Q96RR4); settings: Compound concentration 1000.0 nM
# [18] = biological target: Ribosomal protein S6 kinase alpha-3 (Homo sapiens) (UniProt P51812); settings: Compound concentration 1000.0 nM
# [19] = biological target: cAMP-dependent protein kinase catalytic subunit alpha (Homo sapiens) (UniProt P17612); settings: Compound concentration 1000.0 nM
# [20] = biological target: Testis-specific serine/threonine-protein kinase 3 (Homo sapiens) (UniProt Q96PN8); settings: Compound concentration 1000.0 nM
# [21] = biological target: Serine/threonine-protein kinase 17A (Homo sapiens) (UniProt Q9UEE5); settings: Compound concentration 1000.0 nM
# [22] = biological target: 5-hydroxytryptamine receptor 7 (Homo sapiens) (UniProt P34969); assay: 5-HT7 (h) CEREP ligand profiling; settings: filed as agonist, Compound concentration 10.0 uM
# [23] = biological target: Testis-specific serine/threonine-protein kinase 1 (Homo sapiens) (UniProt Q9BXA7); settings: Compound concentration 1000.0 nM
# [24] = biological target: Activated CDC42 kinase 1 (Homo sapiens) (UniProt Q07912); settings: Compound concentration 1000.0 nM
# [25] = biological target: Serine/threonine-protein kinase pim-2 (Homo sapiens) (UniProt Q9P1W9); settings: Compound concentration 1000.0 nM
# [26] = biological target: Serine/threonine-protein kinase Nek1 (Homo sapiens) (UniProt Q96PY6); settings: Compound concentration 1000.0 nM
# [27] = biological target: Calcium-activated potassium channel (Homo sapiens) (UniProt Q92952+Q9UGI6+Q12791+O15554+Q9H2S1+A8MYU2); assay: SKCa channel CEREP ligand profiling; format: protein assay; settings: filed as antagonist; Compound concentration 10.0 uM
# [28] = biological target: Tyrosine-protein kinase BTK (Homo sapiens) (UniProt Q06187); settings: Compound concentration 1000.0 nM
# [29] = test system: Epidermal growth factor receptor (Homo sapiens), P00533 [UNDEFINED MUTATION]; settings: Compound concentration 1000.0 nM
# [30] = biological target: Protein kinase C delta type (Homo sapiens) (UniProt Q05655); settings: Compound concentration 1000.0 nM
# [31] = biological target: Ankyrin repeat and protein kinase domain-containing protein 1 (Homo sapiens) (UniProt Q8NFD2); settings: Compound concentration 1000.0 nM
# D(3) dopamine receptor = D(3) dopamine receptor (Homo sapiens, UniProt P35462); settings: Compound concentration 10.0 uM
# [32] = biological target: Mitogen-activated protein kinase kinase kinase kinase 2 (Homo sapiens) (UniProt Q12851); settings: Compound concentration 1000.0 nM
# [33] = biological target: Mitogen-activated protein kinase kinase kinase kinase 3 (Homo sapiens) (UniProt Q8IVH8); settings: Compound concentration 1000.0 nM
# [34] = biological target: Tyrosine-protein kinase HCK (Homo sapiens) (UniProt P08631); settings: Compound concentration 1000.0 nM
# [35] = biological target: Casein kinase II subunit alpha (Homo sapiens) (UniProt P68400); settings: Compound concentration 1000.0 nM
# [36] = test system: Tyrosine-protein kinase ABL1 (Homo sapiens), P00519 [M351T]; settings: Compound concentration 1000.0 nM
# [37] = biological target: Tyrosine-protein kinase Fes/Fps (Homo sapiens) (UniProt P07332); settings: Compound concentration 1000.0 nM
# [38] = biological target: Phosphatidylinositol 4-kinase beta (Homo sapiens) (UniProt Q9UBF8); settings: Compound concentration 1000.0 nM
# [39] = biological target: Angiopoietin-1 receptor (Homo sapiens) (UniProt Q02763); settings: Compound concentration 1000.0 nM
# [40] = biological target: Tyrosine-protein kinase Fgr (Homo sapiens) (UniProt P09769); settings: Compound concentration 1000.0 nM
# [41] = biological target: Casein kinase I isoform alpha (Homo sapiens) (UniProt P48729); settings: Compound concentration 1000.0 nM
# [42] = biological target: Mitogen-activated protein kinase kinase kinase 15 (Homo sapiens) (UniProt Q6ZN16); settings: Compound concentration 1000.0 nM
# [43] = biological target: Serine/threonine-protein kinase RIO2 (Homo sapiens) (UniProt Q9BVS4); settings: Compound concentration 1000.0 nM
# [44] = test system: Mast/stem cell growth factor receptor Kit (Homo sapiens), P10721 [D816H]; settings: Compound concentration 1000.0 nM
# Mast/stem cell growth factor receptor Kit (Homo sapiens), P10721 [D816H], sequence (P10721 whole entry D816H): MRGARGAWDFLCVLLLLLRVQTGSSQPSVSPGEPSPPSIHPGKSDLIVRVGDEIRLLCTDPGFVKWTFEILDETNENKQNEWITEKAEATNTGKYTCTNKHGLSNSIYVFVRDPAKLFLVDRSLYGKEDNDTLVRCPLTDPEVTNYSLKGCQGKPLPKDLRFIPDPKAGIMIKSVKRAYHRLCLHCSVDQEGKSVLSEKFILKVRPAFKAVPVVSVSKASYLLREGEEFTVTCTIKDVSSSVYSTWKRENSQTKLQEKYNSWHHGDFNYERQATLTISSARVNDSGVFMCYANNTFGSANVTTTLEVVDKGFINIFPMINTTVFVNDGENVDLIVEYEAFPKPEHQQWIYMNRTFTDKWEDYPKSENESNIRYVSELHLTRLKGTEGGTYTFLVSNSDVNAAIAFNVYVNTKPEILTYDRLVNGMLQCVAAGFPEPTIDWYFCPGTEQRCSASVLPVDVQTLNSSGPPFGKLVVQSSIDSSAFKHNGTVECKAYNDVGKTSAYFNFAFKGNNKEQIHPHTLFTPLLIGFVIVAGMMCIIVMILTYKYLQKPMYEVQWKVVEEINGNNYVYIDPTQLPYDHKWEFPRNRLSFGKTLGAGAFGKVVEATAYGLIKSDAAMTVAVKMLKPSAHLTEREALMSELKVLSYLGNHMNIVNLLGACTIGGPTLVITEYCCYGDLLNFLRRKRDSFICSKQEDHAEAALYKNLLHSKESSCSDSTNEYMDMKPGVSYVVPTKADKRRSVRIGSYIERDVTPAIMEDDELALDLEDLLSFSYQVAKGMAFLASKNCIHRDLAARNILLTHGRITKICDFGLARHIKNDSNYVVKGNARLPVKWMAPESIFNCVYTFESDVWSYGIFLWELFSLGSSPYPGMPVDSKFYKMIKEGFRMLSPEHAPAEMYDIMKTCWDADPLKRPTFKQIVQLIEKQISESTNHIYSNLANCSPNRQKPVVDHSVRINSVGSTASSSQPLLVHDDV
# Epidermal growth factor receptor (Homo sapiens), P00533 [UNDEFINED MUTATION], sequence (P00533 whole entry, looked up, stated change not applied): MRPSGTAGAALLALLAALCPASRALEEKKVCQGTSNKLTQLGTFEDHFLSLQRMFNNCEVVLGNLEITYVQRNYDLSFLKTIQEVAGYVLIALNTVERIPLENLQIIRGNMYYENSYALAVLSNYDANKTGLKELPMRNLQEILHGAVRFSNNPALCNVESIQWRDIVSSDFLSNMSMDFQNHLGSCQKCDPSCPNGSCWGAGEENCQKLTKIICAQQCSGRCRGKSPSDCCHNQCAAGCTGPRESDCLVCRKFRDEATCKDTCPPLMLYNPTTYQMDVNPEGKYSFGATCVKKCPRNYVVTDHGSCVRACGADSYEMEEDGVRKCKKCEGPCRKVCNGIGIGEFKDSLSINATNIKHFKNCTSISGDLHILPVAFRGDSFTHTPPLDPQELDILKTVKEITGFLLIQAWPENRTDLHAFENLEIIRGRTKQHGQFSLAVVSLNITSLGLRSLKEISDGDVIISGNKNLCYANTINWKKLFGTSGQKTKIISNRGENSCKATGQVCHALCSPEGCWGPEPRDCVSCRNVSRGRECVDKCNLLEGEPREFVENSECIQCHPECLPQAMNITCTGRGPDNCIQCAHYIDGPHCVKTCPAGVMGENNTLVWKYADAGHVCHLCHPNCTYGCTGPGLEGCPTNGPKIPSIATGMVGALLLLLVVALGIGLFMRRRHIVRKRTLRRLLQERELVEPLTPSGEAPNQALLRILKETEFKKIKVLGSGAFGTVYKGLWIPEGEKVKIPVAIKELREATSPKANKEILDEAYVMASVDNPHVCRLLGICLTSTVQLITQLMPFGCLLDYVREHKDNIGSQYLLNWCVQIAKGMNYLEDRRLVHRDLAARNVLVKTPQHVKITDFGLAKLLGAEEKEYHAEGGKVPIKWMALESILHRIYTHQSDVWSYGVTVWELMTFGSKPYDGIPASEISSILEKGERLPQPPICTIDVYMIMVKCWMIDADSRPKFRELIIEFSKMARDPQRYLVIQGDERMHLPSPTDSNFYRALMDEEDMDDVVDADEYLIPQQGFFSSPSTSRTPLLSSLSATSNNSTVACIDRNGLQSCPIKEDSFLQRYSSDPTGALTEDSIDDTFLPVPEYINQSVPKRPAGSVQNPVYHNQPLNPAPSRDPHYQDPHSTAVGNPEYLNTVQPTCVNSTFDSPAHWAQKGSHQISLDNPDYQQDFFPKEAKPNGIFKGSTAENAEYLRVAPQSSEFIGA
# D(2) dopamine receptor (Homo sapiens), sequence (P14416 whole entry): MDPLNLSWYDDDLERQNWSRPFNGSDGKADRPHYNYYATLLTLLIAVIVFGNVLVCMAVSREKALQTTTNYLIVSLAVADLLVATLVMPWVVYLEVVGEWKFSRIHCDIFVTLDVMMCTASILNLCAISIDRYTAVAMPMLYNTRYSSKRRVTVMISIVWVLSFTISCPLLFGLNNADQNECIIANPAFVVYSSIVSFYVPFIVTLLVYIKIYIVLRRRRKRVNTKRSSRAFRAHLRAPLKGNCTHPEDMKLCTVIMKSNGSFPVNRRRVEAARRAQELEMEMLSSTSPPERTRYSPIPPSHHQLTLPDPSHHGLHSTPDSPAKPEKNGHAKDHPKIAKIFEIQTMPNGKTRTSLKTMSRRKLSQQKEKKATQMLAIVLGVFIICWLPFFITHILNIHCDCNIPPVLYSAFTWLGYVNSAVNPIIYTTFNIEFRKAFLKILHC
# 5-hydroxytryptamine receptor 2B, sequence (P41595 whole entry): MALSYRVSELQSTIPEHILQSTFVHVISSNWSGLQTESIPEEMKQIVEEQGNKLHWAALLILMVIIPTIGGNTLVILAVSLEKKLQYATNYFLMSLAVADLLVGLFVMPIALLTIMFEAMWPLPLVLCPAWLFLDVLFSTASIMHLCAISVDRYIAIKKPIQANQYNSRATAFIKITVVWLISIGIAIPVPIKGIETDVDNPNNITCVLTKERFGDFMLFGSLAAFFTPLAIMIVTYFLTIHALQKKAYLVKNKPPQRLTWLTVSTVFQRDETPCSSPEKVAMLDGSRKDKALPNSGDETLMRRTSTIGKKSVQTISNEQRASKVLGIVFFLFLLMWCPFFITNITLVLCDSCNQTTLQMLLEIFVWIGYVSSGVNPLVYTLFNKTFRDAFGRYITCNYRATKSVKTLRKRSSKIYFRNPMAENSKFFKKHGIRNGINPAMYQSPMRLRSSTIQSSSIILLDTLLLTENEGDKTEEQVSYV
# Mitogen-activated protein kinase kinase kinase 15 (Homo sapiens), sequence (Q6ZN16 whole entry): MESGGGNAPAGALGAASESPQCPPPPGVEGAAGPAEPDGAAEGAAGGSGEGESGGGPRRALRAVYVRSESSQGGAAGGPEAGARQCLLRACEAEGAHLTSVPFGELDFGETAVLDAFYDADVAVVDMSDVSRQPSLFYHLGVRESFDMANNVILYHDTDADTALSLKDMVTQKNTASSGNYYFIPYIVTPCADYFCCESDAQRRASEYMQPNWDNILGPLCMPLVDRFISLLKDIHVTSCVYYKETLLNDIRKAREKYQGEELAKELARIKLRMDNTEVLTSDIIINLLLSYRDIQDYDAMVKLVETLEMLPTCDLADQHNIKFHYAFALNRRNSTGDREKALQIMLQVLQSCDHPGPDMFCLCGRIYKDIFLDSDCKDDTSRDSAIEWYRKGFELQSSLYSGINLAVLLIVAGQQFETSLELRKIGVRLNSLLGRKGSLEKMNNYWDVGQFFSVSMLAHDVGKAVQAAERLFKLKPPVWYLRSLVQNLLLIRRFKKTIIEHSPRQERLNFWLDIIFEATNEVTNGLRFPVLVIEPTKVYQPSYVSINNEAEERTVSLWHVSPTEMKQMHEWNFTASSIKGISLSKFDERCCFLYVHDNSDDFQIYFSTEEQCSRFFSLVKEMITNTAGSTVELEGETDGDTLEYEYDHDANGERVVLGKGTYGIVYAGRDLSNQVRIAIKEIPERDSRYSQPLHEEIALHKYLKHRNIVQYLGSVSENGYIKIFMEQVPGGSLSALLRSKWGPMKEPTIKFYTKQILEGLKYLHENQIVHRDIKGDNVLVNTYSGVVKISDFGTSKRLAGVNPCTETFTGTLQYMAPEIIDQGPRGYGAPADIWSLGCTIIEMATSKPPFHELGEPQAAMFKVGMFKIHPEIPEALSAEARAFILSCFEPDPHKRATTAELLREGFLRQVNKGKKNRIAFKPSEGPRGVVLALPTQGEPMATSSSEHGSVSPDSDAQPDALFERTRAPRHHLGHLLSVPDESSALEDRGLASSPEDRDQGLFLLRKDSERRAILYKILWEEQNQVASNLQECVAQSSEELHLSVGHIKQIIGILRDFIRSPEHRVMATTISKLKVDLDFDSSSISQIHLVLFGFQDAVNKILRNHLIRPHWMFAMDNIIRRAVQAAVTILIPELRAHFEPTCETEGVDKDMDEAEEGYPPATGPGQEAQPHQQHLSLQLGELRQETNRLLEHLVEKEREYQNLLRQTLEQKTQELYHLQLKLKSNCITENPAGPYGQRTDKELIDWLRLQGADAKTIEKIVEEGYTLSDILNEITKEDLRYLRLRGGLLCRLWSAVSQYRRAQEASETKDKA
# Casein kinase I isoform alpha (Homo sapiens), sequence (P48729 2-337 limits assumed): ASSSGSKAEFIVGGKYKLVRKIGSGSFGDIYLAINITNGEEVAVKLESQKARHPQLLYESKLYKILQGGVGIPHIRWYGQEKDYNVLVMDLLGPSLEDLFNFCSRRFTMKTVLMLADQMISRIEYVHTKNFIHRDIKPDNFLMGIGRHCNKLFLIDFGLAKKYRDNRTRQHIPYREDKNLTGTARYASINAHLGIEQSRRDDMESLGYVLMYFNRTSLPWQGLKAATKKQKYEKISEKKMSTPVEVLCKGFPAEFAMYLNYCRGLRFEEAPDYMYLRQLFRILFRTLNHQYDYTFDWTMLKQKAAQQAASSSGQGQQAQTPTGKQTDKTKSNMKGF
# Serine/threonine-protein kinase pim-2 (Homo sapiens), sequence (Q9P1W9 whole entry, looked up): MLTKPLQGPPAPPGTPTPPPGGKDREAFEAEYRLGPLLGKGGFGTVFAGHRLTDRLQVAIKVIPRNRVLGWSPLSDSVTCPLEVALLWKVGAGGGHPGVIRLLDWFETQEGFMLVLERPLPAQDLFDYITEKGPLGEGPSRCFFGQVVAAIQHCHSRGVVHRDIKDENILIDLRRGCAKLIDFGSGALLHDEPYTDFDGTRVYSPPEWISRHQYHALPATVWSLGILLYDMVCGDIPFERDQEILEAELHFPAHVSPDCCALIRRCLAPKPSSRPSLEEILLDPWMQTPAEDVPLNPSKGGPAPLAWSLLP
compound,measurement,setting,value
CNC(=O)Nc1ccc2c(c1)[C@@]1(CC2)OC(=O)N(CC(=O)N(Cc2ccc(F)cc2)[C@@H](C)C(F)(F)F)C1=O [A-486],residual activity,[1],95%
same,residual activity,[2],100%
same,inhibition,[3],-8.75%
same,residual activity,[4],100%
same,residual activity,[5],100%
same,residual activity,[6],72%
same,inhibition,[7],29.2%
same,residual activity,[8],71%
same,inhibition,[9],16%
same,residual activity,[10],98%
same,residual activity,[11],93%
same,residual activity,[12],89%
same,inhibition,[13],11.2%
same,residual activity,[14],100%
same,inhibition,[15],8.23%
same,residual activity,[16],92%
same,residual activity,[17],99%
same,residual activity,[18],75%
same,residual activity,[19],99%
same,residual activity,[20],100%
same,residual activity,[21],88%
same,inhibition,[22],6%
same,residual activity,[23],100%
same,residual activity,[24],87%
same,residual activity,[25],89%
same,residual activity,[26],100%
same,inhibition,[27],-7%
same,residual activity,[28],97%
same,residual activity,[29],85%
same,residual activity,[30],75%
same,residual activity,[31],61%
same,inhibition,D(3) dopamine receptor,57.8%
same,residual activity,[32],92%
same,residual activity,[33],89%
same,residual activity,[34],100%
same,residual activity,[35],60%
same,residual activity,[36],88%
same,residual activity,[37],85%
same,residual activity,[38],71%
same,residual activity,[39],100%
same,residual activity,[40],88%
same,residual activity,[41],83%
same,residual activity,[42],90%
same,residual activity,[43],83%
same,residual activity,[44],70%
CNC(=O)Nc1ccc2c(c1)CC[C@@]21OC(=O)N(CC(=O)N(Cc2ccc(F)cc2)[C@@H](C)C(F)(F)F)C1=O [A-485],residual activity,[1],94%
same,residual activity,[2],100%
same,inhibition,[3],15.5%
same,residual activity,[4],77%
same,residual activity,[5],100%
same,residual activity,[6],63%
same,inhibition,[7],81.4%
same,residual activity,[8],79%
same,inhibition,[9],13%
same,residual activity,[10],100%
same,residual activity,[11],90%
same,residual activity,[12],97%
same,inhibition,[13],9.82%
same,residual activity,[14],81%
same,inhibition,[15],9.06%
same,residual activity,[16],96%
same,residual activity,[17],76%
same,residual activity,[18],88%
same,residual activity,[19],100%
same,residual activity,[20],88%
same,residual activity,[21],100%
same,inhibition,[22],16%
same,residual activity,[23],84%
same,residual activity,[24],90%
same,residual activity,[25],98%
same,residual activity,[26],100%
same,inhibition,[27],2%
same,residual activity,[28],87%
same,residual activity,[29],67%
same,residual activity,[30],76%
same,residual activity,[31],81%
same,inhibition,D(3) dopamine receptor,1.52%
same,residual activity,[32],76%
same,residual activity,[33],76%
same,residual activity,[34],99%
same,residual activity,[35],63%
same,residual activity,[36],100%
same,residual activity,[37],94%
same,residual activity,[38],74%
same,residual activity,[39],87%
same,residual activity,[40],75%
same,residual activity,[41],93%
same,residual activity,[42],77%
same,residual activity,[43],67%
same,residual activity,[44],67%

# Reference: ChEMBL document CHEMBL4507259 (2021)
